Assay results reported in patent US20230167093A1, “COMPOUNDS AND METHODS FOR MODULATING SPLICING” (REMIX THERAPEUTICS INC., priority 2020, published 2023).

Key:
Format in all cases: cell-based
SMN2 CJ mRNA = assay: Gene panel canonical junction qPCR assay, SMN2; details: protocol as above, concentration having 50% response in CJ decrease, read-out: SMN2 IC50 (decrease in CJ mRNA levels)
Description: Compounds described herein were used to modulate RNA transcript abundance in cells. The expression of a target mRNA was measured by detecting the formation of an exon-exon junction in the canonical transcript (CJ). A compound mediated exon-inclusion event was detected by observing an increase in formation of a new junction with an alternative exon (AJ). Real-time qPCR assays were used to detect these splicing switches and interrogate the potency of various compounds towards different target genes. A high-throughput real time quantitative PCR (RT-qPCR) assay was developed to measure these two isoforms of the mRNA (CJ and AJ) for an exemplary gene, HTT, together with a control housekeeping gene, GAPDH or GUSB or PPIA, used for normalization. Briefly, the A673 or K562 cell line was treated with various compounds described herein (e.g., compounds of Formula (I) or (II)). […]
(§1) The A673 cell line was cultured in DMEM with 10% FBS. Cells were diluted with full growth media and plated in a 96-well plate (15,000 cells in 100 ul media per well). The plate was incubated at 37° C. with 5% CO2 for 24 hours to allow cells to adhere. An 11-point 3-fold serial dilution of the compounds was made in DMSO then diluted in media in an intermediate plate. Compounds were transferred from the intermediate plate to the cell plate with the top dose at a final concentration of 10 uM in the well. Final DMSO concentration was kept at or below 0.25%. The cell plate was returned to the incubator at 37° C. with 5% CO2 for an additional 24 hours.
(§2) The K562 cell line was cultured in IMDM with 10% FBS. For K562, cells were diluted with full growth media and plated in either a 96-well plate (50,000 cells in 50 uL media per well) or a 384-well plate (8,000-40,000 cells in 45 uL media per well). An 11-point 3-fold serial dilution of the compounds were made in DMSO then diluted in media in an intermediate plate. Compound was transferred from the intermediate plate to the cell plate with the top dose at a final concentration of 10 uM in the well. Final DMSO concentration was kept at or below 0.25%. Final volume was 100 uL for 96-well plate and 50 uL for 384-well plate. The cell plate was then placed in an incubator at 37° C. with 5% CO2 for 24 hours.
(§3) The cells were then gently washed with 50 uL-100 uL cold PBS before proceeding to addition of lysis buffer. 30 uL-50 uL of room temperature lysis buffer with DNAse I (and optionally RNAsin) was added to each well. Cells were shaken/mixed thoroughly at room temperature for 5-10 minutes for lysis to take place and then 3 uL-5 uL of room temperature stop solution was added and wells were shaken/mixed again. After 2-5 minutes, the cell lysate plate was transferred to ice for RT-qPCR reaction setup. The lysates could also be frozen at −80° C. for later use.
(§4) In some cases, a direct lysis buffer was used. An appropriate volume of 3× lysis buffer (10 mM Tris, 150 mM NaCl, 1.5%-2.5% Igepal and 0.1-1 U/uL RNAsin, pH 7.4) was directly added to either K562 or A673 cells in media and mixed by pipetting 3 times. The plates were then incubated at room temperature with shaking/rocking for 20-50 minutes to allow for lysis to take place. After this time, the cell lysate plate was transferred to ice to set up for the RT-qPCR reactions. The lysates could also be frozen at −80° C. for later use.
(§5) To set up 10 uL RT-qPCR reactions, cell lysates were transferred to 384-well qPCR plates containing the master mix according to the table below. The plates were sealed, gently vortexed, and spun down before the run. The volumes were adjusted accordingly in some instances where the reaction was carried in 20 uL. The table below summarizes the components of the RT-qPCR reactions:
The RT-qPCR reaction was performed using a QuantStudio (ThermoFisher) under the following fast cycling conditions. All samples and standards were analyzed at least in duplicate. […]

HTT AJ mRNA = assay: RT-qPCR splicing assay, HTT alternative junction (AJ) mRNA increase; details: A673 or K562 cells, 24 hours compound treatment, top dose 10 uM; concentration having 50% response in AJ increase
Description: (§6) Compounds described herein were used to modulate RNA transcript abundance in cells. The expression of a target mRNA was measured by detecting the formation of an exon-exon junction in the canonical transcript (CJ). A compound mediated exon-inclusion event was detected by observing an increase in formation of a new junction with an alternative exon (AJ). Real-time qPCR assays were used to detect these splicing switches and interrogate the potency of various compounds towards different target genes. A high-throughput real time quantitative PCR (RT-qPCR) assay was developed to measure these two isoforms of the mRNA (CJ and AJ) for an exemplary gene, HTT, together with a control housekeeping gene, GAPDH or GUSB or PPIA, used for normalization. Briefly, the A673 or K562 cell line was treated with various compounds described herein (e.g., compounds of Formula (I) or (II)). After treatment, the levels of the HTT mRNA targets were determined from each sample of cell lysate by cDNA synthesis followed by qPCR.
as §1, §2, §3, §4, §5
(§7) The RT-qPCR reaction was performed using a QuantStudio (ThermoFisher) under the following fast cycling conditions. […]

HTT CJ mRNA [1] = assay: Gene panel canonical junction qPCR assay, HTT; details: protocol as above, concentration having 50% response in CJ decrease, read-out: HTT IC50 (decrease in CJ mRNA levels)
Description: as §6, §1, §2, §3, §4, §5, §7

Target C CJ mRNA = assay: Gene panel canonical junction qPCR assay, Target C; details: protocol as above, concentration having 50% response in CJ decrease, read-out: Target C IC50 (decrease in CJ mRNA levels)
Description: as §6, §1, §2, §3, §4, §5, §7

HTT CJ mRNA [2] = assay: RT-qPCR splicing assay, HTT canonical junction (CJ) mRNA decrease; details: A673 or K562 cells, 24 hours compound treatment, top dose 10 uM; concentration having 50% response in CJ decrease
Description: as §6, §1, §2, §3, §4, §5, §7

Cc1cc(-c2nc3cc(N4CCNCC4)ccc3c(=O)[nH]2)cc2cn(C)nc12 [Compound 213, 2-(2,7-dimethyl-2H-indazol-5-yl)-7-(piperazin-1-yl)quinazolin-4(3H)-one]
> 10 µM: IC50 (SMN2 CJ mRNA) | AC50 (HTT AJ mRNA) | IC50 (HTT CJ mRNA [1]) | IC50 (Target C CJ mRNA) | AC50 (HTT CJ mRNA [2])

Cc1cc(-c2nc3cc(N4CCN(C)CC4)ccc3c(=O)[nH]2)cc2cn(C)nc12 [Compound 214, 2-(2,7-dimethyl-2H-indazol-5-yl)-7-(4-methylpiperazin-1-yl)quinazolin-4(3H)-one]
> 10 µM: IC50 (SMN2 CJ mRNA) | AC50 (HTT AJ mRNA) | IC50 (HTT CJ mRNA [1]) | IC50 (Target C CJ mRNA) | AC50 (HTT CJ mRNA [2])
